Changes are numbered by the printed parent chain. Marks after values point to notes of the source that are not given here.
System: Fc fragment of human IgG
Assay: Binding of B1 mutants to human IgG Fc fragment (acrylodan fluorescence titration; competition assay for weak binders)
Settings: for DDG = −RTIn (Kd wild type/Kd mutant): T = 298K, relative to Q32C wild-type construct; for Kd: hFc, Q32C background, 20 mM KPO4 (pH 6.0), 25° C., direct titration, or competition with labeled wild-type B1-hFc complex for weak binders; for fold increase in Kd: hFc binding, relative to wild-type (Q32C) B1
Text: Fluorophore coupling and iodoacetamide blocking. All of the above mutations were constructed into the Q32C background to allow site-specific covalent coupling with acrylodan for fluorescent binding assays as described by Sloan, D. J. and Hellinca, H. W. (1998) Prot. Eng. 11:819-823. In competitive binding experiments between fluorescently labeled wild-type B1 and unlabeled mutants, the free thiol in the mutant protein was blocked by reaction with iodoacetamide.
Binding of B1 mutants to human IgG Fc fragment. The binding constants for each of the alanine mutants were measured as an increase in fluorescence by direct titration of Fc fragment of human IgG (ICN Biomedicals, Costa Mesa, Calif.) into a solution containing 250nM acrylodan-conjugated B1 domain mutant in 20 mM KPO4 (pH 6.0) at 25° C. (excitation 392 nm; emission 500 nm; slit widths of 4 and 16 nm respectively). After each addition of protein, the solution was allowed to equilibrate for 30 seconds before the final fluorescence value was recorded.
Each titration comprised 20 points and was performed in triplicate. The data were fit to a binding isotherm that described a single binding site and takes into account all of the species present (Segel, I. H. (1975) Enzyme Kinetics, John Wiley & Sons, New York, N.Y.): [formula]
where F is the measured fluorescence with FO and Fmax representing the initial and final values, respectively. [B1]t and [hFc]t are the concentrations of B1 and hFc respectively, and the Kd is the disassociation constant. This equation is referred to herein as “Equation 1”.
The binding constants of weak binders (greater than 50-fold increases in Kd) were measured in a competition assay with a pre-formed complex (250 nM) of wild type Q32C construct conjugated to acrylodan and hFc. Binding constants were determined by measuring the decrease in fluorescence of the complex by the addition of iodoacetamide blocked mutant B1 domains. From these competition binding curves the Kd for each of the mutant B1 domains was calculated from the binding isotherm (Fierke, C. A. et al. (1991) Biochemistry 30:11054-11063): [formula]
where F is the measured fluorescence with Fo and Ff representing the initial and final values respectively. [B1wt] and [B1mut] are the concentrations of B1 wild type and mutant respectively, and the Kd is the disassociation constant of the mutant or wild type. This Equation is referred to herein as “Equation 2”.
Binding studies. The interaction of the mutant B1 domain with the hFc was measured using a fluorescence method described by Sloan, D. J. and Hellinga, H. W. (1998) Prot. Eng. 11:819-823, which relies on the attachment of an environmentally sensitive fluorophore placed at the rim of the binding site in a location such that its fluorescence changes upon formation of the complex by virtue of alterations in conformational degrees of freedom and solvent accessibility, without adversely affecting the binding constant. Binding constants for hFc were determined in a direct titration experiment in which purified hFc was added to a solution of a Q32C B1 mutant to which the fluorophore acrylodan was covalently coupled at position 32C (FIG. 2A). The binding constants for all the B1 mutants were determined in the Q32C background (Table 4).
This approach was used to avoid having to use large quantities of pure hFc.

Row | Substance | DDG = −RTIn (Kd wild type/Kd mutant) | Kd [µM] | fold increase in Kd [fold]
1 | 1: B1 domain of protein G with Q32C mutation and His tag; the wild-type construct relative to which all measurements are made [Example 1, reference compound] | 0 kcal/mol | 0.24 | 
2 | 2: B1 domain of protein G, T25A mutant in Q32C background [Example 2] | 0.24 kcal/mol | 0.36 | 
3 | 3: B1 domain of protein G, E27A mutant in Q32C background [Example 3] | >4.9^f kcal/mole | > 1000 | > 4000
4 | 4: B1 domain of protein G, K28A mutant in Q32C background [Example 4] | 1.3 kcal/mol | 2 | 
5 | 5: B1 domain of protein G, K31A mutant in Q32C background [Example 5] | 3.5 kcal/mol | 85 | 350
6 | 6: B1 domain of protein G, N35A mutant in Q32C background [Example 6] | 2.4 kcal/mol | 13 | 50
7 | 7: B1 domain of protein G, D40A mutant in Q32C background [Example 7] | 0.3 kcal/mol | 0.38 | 
8 | 8: B1 domain of protein G, E42A mutant in Q32C background [Example 8] | 0.4 kcal/mol | 0.46 | 
9 | 9: B1 domain of protein G, W43A mutant in Q32C background [Example 9] | 3.8 kcal/mol | 140 | 580
10 | 10: B1 domain of protein G, T44/Y45A mutant in Q32C background [Example 10] | 2.0 kcal/mol | 6.5 | 

Source: US6663862B1, “Reagents for detection and purification of antibody fragments” (Duke University, priority 1999, dated 2003)
